Test results: patent publication US20180344756A1, “METHODS FOR THE TREATMENT AND PREVENTION OF RENAL DISORDERS AND FATTY LIVER DISORDERS” (Janssen Pharmaceutica NV, priority 2014, published 2018)

Key:
[1] = Albuminuria in the DIA3004 clinical trial, subjects with moderate renal impairment; type: in vivo, human; conditions: 52-week study, placebo 19.7%
Method: (§1) The albumin/creatinine ratio was measured at baseline, over 12 weeks, over 52 weeks, and over 104 weeks, in subjects participating in the CANagliflozin cardioVascular Assessment Study (CANVAS), the DIA3004 clinical trial, and the DIA3009 clinical trial, respectively. (Complete protocol details for the CANVAS, DIA3004 and DIA3009 clinical trials are available on www.clinicaltrials.gov).

[2] = eGFR change from baseline over time in the CANVAS, DIA3004 and DIA3009 clinical trials; type: in vivo, human; conditions: maximal at first post baseline visit, stable or attenuated with continued treatment; CANVAS and DIA3004 52 weeks, DIA3009 104 weeks; FIG. 3-5
Excerpt: The time course of eGFR changes over 52 weeks in the CANVAS clinical trial is shown in FIG. 3; over a 52-week study in subjects with moderate renal impairment (in the DIA3004 clinical trial) are shown in FIG. 4; and over a 104-week period in an active comparator study (DIA3009, add-on to metformin) are shown in FIG. 5.

[3] = Albumin/creatinine ratio in the CANVAS clinical trial, subjects with micro- or macroalbuminuria; type: in vivo, human; conditions: for median percent change from baseline in ACR at Week 52: subjects with macroalbuminuria, Week 52, 82% of subjects on ACEIs or ARBs at baseline, placebo −3.6%
Method: as §1
In subjects with macroalbuminuria in CANVAS, the median percent change from baseline in ACR at Week 52 was −3.6% in the placebo group, −58.6% in the canagliflozin 100 mg group, and −53.3% in the canagliflozin 300 mg group.

[4] = metformin on its own, in the diabetic; cited from earlier work

SMILES	median percent reductions in albuminuria ([1]; baseline eGFR 30 to <50 ml/min/1.73 m^2, canagliflozin 100 mg)	median percent reductions in albuminuria ([1]; baseline eGFR 30 to <50 ml/min/1.73 m^2, canagliflozin 300 mg)	effect on eGFR (in words) [2]	median percent change from baseline in ACR at Week 52 ([3]; canagliflozin 100 mg)	median percent change from baseline in ACR at Week 52 ([3]; canagliflozin 300 mg)	albuminuria after 52 weeks of treatment (in words) ([3]; subjects with micro- and macroalbuminuria at baseline, FIG. 1 and FIG. 2)	average improvement in the HbA1c value [4]
Cc1ccc([C@@H]2O[C@H](CO)[C@@H](O)[C@H](O)[C@H]2O)cc1Cc1ccc(-c2ccc(F)cc2)s1 [canagliflozin]	−16.4%	−28.0%	dose-dependent, reversible reduction in eGFR	−58.6%	−53.3%	reductions in albuminuria	
CN(C)C(=N)N=C(N)N [metformin]							1.0-1.5%
